From PubChem BioAssay AID1850 (Southern Research Specialized Biocontainment Screening …, 2009)
pIC50: −log10 of the molar value.

System: Salmonella Typhi PhoP-promoter GFP reporter, fluorescence, 4 h
Assay: Inhibition of PhoP regulon, Salmonella typhi GFP reporter cells, confirmation, 4 h (AID 1850)

Row | SMILES | pIC50
1 | CC[C@H]1OC(=O)C[C@@H](O)[C@H](C)[C@@H](O[C@@H]2O[C@H](C)C[C@H](N(C)C)[C@H]2O)[C@@H](CC=O)C[C@@H](C)C(=O)C=C[C@]2(C)O[C@H]2[C@@H]1C | 5.15
2 | CCCCCCCCCCCCCCCC[N+](C)(C)CC | 4.73
3 | CN(C)CC/C=C1/c2ccccc2Sc2ccc(Cl)cc21 | 4.31
4 | Cc1cccc(OCC(O)Cn2c(=N)n(CCN3CCCCC3)c3ccccc32)c1 (stereo unspecified) | 4.11
5 | Clc1cccc(CN2CCc3c([nH]c4ccccc34)C2)c1Cl | 4.12
6 | Cc1ccc2nc(N(CCCN(C)C)C(=O)c3sc4ccccc4c3Cl)sc2c1 | 4.45
7 | C#CCOCCOCCOCCNc1nc(N2CCN(C(=O)CCCCCCCCCCNC(=O)[C@H](CCCCN)n3cc(C[C@@H](C)CC)nn3)CC2)nc(N2CCN(C(=O)CCCCCCCCCCNC(=O)[C@H](CCCN=C(N)N)n3cc(C[C@@H](C)CC)nn3)CC2)n1 | 4.48
8 | CCCCC(=O)NNC(=S)NC(=O)CCC | 4.01
9 | OCCN1CCN(Cc2cc(Cl)c3cccnc3c2O)CC1 | 4.12
10 | CC1CCC(C(C)C)C(OC(=O)Cn2c(-c3ccc(Br)cc3)[n+](C)c3ccccc32)C1 (stereo unspecified) | 4.31
11 | CN(C)c1ccc(Nc2nc(N)c3ccccc3n2)cc1 | 4.51
12 | O=C(Oc1c(Cl)cc(Cl)c2cccnc12)c1cccc([N+](=O)[O-])c1 | 5.08
13 | CCOC(=O)N/N=C\c1ccc([N+](=O)[O-])o1 | 4.48
14 | Nc1cccc2nc3ccccc3cc12 | 4.45
15 | CNCCC=C1c2ccccc2CCc2ccccc21 | 3.86
16 | O=[N+]([O-])c1ccc(O)c2ncccc12 | 6.02
17 | CCOC(=O)C1=C(c2ccccc2)NC(N)=NC1c1ccc(OCc2ccc(C(=O)OC)cc2)cc1 (stereo unspecified) | 4.46
18 | Cc1ccc(-n2c(-c3ccc(Br)cc3)c[n+]3c2CCc2ccc4cccnc4c2-3)cc1 | 4.21
19 | CNCc1c(OCc2ccccc2F)ccc2ccccc12 | 4.10
20 | COc1cccc(-c2nnc(NC(=O)c3ccc(Cl)s3)o2)c1 | 3.99
21 | O=C(Cn1cncn1)N/N=C/c1ccccc1O | 3.86
22 | COc1ccc(C2NCCc3c2[nH]c2ccccc32)cc1COc1ccc(F)cc1 (stereo unspecified) | 4.41

Row | SMILES | pIC50
23 | C#CCOCCOCCOCCNc1nc(N2CCN(C(=O)[C@H](Cc3cc4ccccc4[nH]3)n3cc([C@@H](N)C(C)CC)nn3)CC2)nc(N2CCN(C(=O)[C@H](Cc3cc4ccccc4[nH]3)n3cc([C@@H](N)CC(C)C)nn3)CC2)n1 (stereo partly specified) | 4.15
24 | Nc1ncn(C2O[C@H](CO)[C@@H](O)[C@H]2O)c(=O)n1 (stereo partly specified) | 4.47
25 | Oc1c(CN2CCOCC2)cc(COCc2ccccc2)c2cccnc12 | 4.41
26 | C#CCOCCOCCOCCNc1nc(N2CCN(C(=O)CCCCCCCCCCNC(=O)[C@H](CCCCN)n3cc(CCO)nn3)CC2)nc(N2CCN(C(=O)CCCCCCCCCCNC(=O)[C@H](CCCN=C(N)N)n3cc(C[C@@H](C)CC)nn3)CC2)n1 | 4.46
27 | NC1=NC[C@H](c2ccccc2)N1CCc1cc(C(F)(F)F)cc(C(F)(F)F)c1 | 4.12
28 | O=C(NNc1nc2ccc(F)cc2s1)c1cccc(F)c1 | 4.11
29 | CCOC(=O)c1ccccc1-n1c(C)cc(C2N=C(N)Nc3nc4ccccc4n32)c1C (stereo unspecified) | 4.44
30 | COc1c(N2CCN(C(=S)NC3CC4CCC3C4)C(C)C2)c(F)cc2c(=O)c(C(=O)O)cn(C3CC3)c12 (stereo unspecified) | 5.18
31 | O=C(Nc1ccc(Cl)cc1)N1CCCN(Cc2ccccc2F)C1 | 4.46
32 | O=C(Cc1ccc([N+](=O)[O-])cc1)N/N=C/c1ccc([N+](=O)[O-])o1 | 4.70
33 | O=C(Nc1nnc(-c2ccccn2)o1)c1cccc(Cl)c1 | 3.94
34 | CC(C)N1CSC(=S)N(Cc2ccccc2)C1 | 3.97
35 | O=C(/C=C/c1ccc(F)cc1)NC(=S)NNC(=O)c1cnccn1 | 4.54
36 | O=C(Oc1c(Cl)cc(Cl)c2cccnc12)c1ccco1 | 4.84
37 | O=C(N/N=C/c1cc(Cl)cc([N+](=O)[O-])c1O)C1CC1 | 3.97
38 | Oc1ccccc1C(Nc1nccs1)c1ccc2cccnc2c1O (stereo unspecified) | 4.68
39 | COc1ccc(C(=O)N/N=C/c2sc3ccccc3c2O)cc1 | 4.14
40 | CN(C)CCN(C(=O)C1=COCCO1)c1nc2ccc(Cl)cc2s1 | 3.87
41 | CCn1cc(C(=O)NCCN(C)C)c(=O)c2cc(F)c(N3CCN(C)CC3)cc21 | 4.63
42 | CCn1cc(C(=O)O)c(=O)c2cc(F)c(N3CCN(C(=S)Nc4ccccc4OC)CC3)cc21 | 4.96
43 | COc1cc(/C=C/[N+](=O)[O-])ccc1O | 3.99
44 | C=CC1=C(C(=O)O)N2C(=O)[C@@H](NC(=O)/C(=N/OCC(=O)O)c3csc(N)n3)[C@H]2SC1 | 4.76

Row | SMILES | pIC50
45 | OC1CCCN(Cc2ccc3ccc4cccc5ccc2c3c45)C1 (stereo unspecified) | 4.10
46 | Fc1ccccc1CCNCc1ccccc1 | 4.47
47 | CCn1cc(C(=O)O)c(=O)c2ccc(C)nc21 | 4.22
48 | Cc1ccc(C(C[N+](=O)[O-])Sc2ccc(N)cc2)cc1 (stereo unspecified) | 4.26
49 | CCCCCCCNC(=O)C1(CC2CC(c3ccc(Cl)cc3)=NO2)CCNCC1 (stereo unspecified) | 4.43
50 | c1ccc(Nc2nc(NCc3ccco3)c3ccccc3n2)cc1 | 5.22
51 | CCOC(=O)Cn1c(=N)n(CCOc2ccc3ccccc3c2)c2ccccc21 | 4.27
52 | C/C(=N/Nc1ccnc2cc(Cl)ccc12)c1ccc(N)cc1 | 4.52
53 | Cc1ccc(Nc2nc(N)c3ccccc3n2)cc1Cl | 4.68
54 | CCCCCCCCCCCCCCCCn1cc[n+](C)c1 | 4.51
55 | CN1CCN(C2Cc3cc(F)ccc3Sc3ccc(Cl)cc32)CC1 (stereo unspecified) | 4.21
56 | CS(=O)(=O)c1ccc([C@@H](O)[C@@H](CO)NC(=O)C(Cl)Cl)cc1 | 4.48
57 | O=C(NC(CO)C(O)c1ccc([N+](=O)[O-])cc1)C(Cl)Cl (stereo unspecified) | 5.29
58 | O=C(Nc1ccncc1)Nc1ccc(Cl)cc1 | 4.48
59 | CN(C)CCCn1c(SCC(=O)N2c3ccccc3Sc3ccccc32)nc2ccccc2c1=O | 4.20
60 | CN1CCN(C2=Cc3ccccc3Sc3cc(F)ccc32)CC1 | 4.18
61 | CCCCCCCSc1cc(OC)c(CCN(C)C)cc1OC | 4.45
62 | CN1CCN(Cc2cc(COCc3ccccc3)c3cccnc3c2O)CC1 | 4.43
63 | O=[N+]([O-])c1cc(F)c2cccnc2c1O | 5.18
64 | CN1CCCN(C(c2ccccc2)c2ccc(Cl)cc2)CC1 (stereo unspecified) | 4.06
65 | CN1C(=O)NC(c2cccc(O)c2)C(C(=O)c2cccs2)C1(O)C(F)(F)F (stereo unspecified) | 4.39
66 | CN(C)C1C(=O)C(C(N)=O)=C(O)C2(O)C(=O)C3=C(O)c4c(O)cccc4C(C)(O)C3CC12 (stereo unspecified) | 5.51

Row | SMILES | pIC50
67 | C#CCOCCOCCOCCNc1nc(N2CCN(C(=O)[C@H](Cc3cc4ccccc4[nH]3)n3cc([C@@H](N)CC(C)C)nn3)CC2)nc(N2CCN(C(=O)[C@H](Cc3cc4ccccc4[nH]3)n3cc([C@@H](N)CC(C)C)nn3)CC2)n1 | 4.40
68 | COc1ccc(/C=C/C(=O)NC(=S)NNC(=O)c2cnccn2)cc1 | 4.30
69 | O=C(CSc1nnc(-c2ccccc2)n1-c1ccc(Cl)cc1)NC1CCS(=O)(=O)C1 (stereo unspecified) | 4.13
70 | CCOc1cc(CNCCCN2CCOCC2)cc(Br)c1OCC(=O)Nc1cccc(C(F)(F)F)c1 | 4.07
71 | CN1CCN(C(c2ccc(C(F)(F)F)cc2)c2ccc3cccnc3c2O)CC1 (stereo unspecified) | 4.70
72 | Cc1c2ccncc2c(C)c2c1[nH]c1ccccc12 | 4.73
73 | CCCCCSc1cc(OC)c(CCNC)cc1OC | 4.05
74 | Cc1ccc(-c2[nH]ncc2/C=N/n2c(C)nc3ccccc3c2=O)cc1 | 3.83
75 | COc1ccc(N2CC(C(=O)N/N=C/c3cc([N+](=O)[O-])ccc3O)CC2=O)cc1 (stereo unspecified) | 3.87
76 | O=C1c2ccccc2C2=Nc3ccccc3SC(c3ccccc3F)C12 (stereo unspecified) | 5.42
77 | COc1ccc(S(=O)(=O)N2CN3CCN(C3)C2)cc1 | 3.84
78 | CC(C)(C)c1ccc(NC(=O)COC(=O)c2ccc([N+](=O)[O-])s2)cc1 | 4.66
79 | Clc1cc(Br)ccc1OCCCNCc1ccccc1 | 4.44
80 | O=[N+]([O-])c1ccc(/C=[N+](\[O-])CCO)o1 | 4.22
81 | O=C(N[C@H](CO)[C@H](O)c1ccc([N+](=O)[O-])cc1)C(Cl)Cl | 5.31
82 | CCCCCCCCC[n+]1cccc2c3ccccc3ccc21 | 4.73
83 | Clc1ccc(OCCCN2CCCC2)cc1Cl | 4.03
84 | O=C(CC(=O)c1c(F)cccc1Cl)c1ccccc1O | 4.29
85 | CCCCCCCCCCOC(=O)Cn1c(COc2ccc(C)cc2)[n+](C)c2ccccc21 | 4.98
86 | OCCN1CCN(C2CCC(c3ccc(F)cc3)c3ccc(F)cc32)CC1 (stereo unspecified) | 4.44
87 | Cc1cc(O)c2c(c1)C(=O)C13C(=C2O)C(=O)[C@H]2[C@@H](O)[C@@H]1[C@H]1[C@H](O)[C@@H]3C(=O)C3=C(O)c4c(O)cc(C)cc4C(=O)C312 (stereo partly specified) | 5.29
88 | OC(CNCCc1ccc(Cl)cc1)COc1cc(Cl)ccc1Cl (stereo unspecified) | 4.17

Row | SMILES | pIC50
89 | Cc1ccc(C)c(NC(=O)CCC(=O)N/N=C/c2cc([N+](=O)[O-])ccc2O)c1 | 4.22
90 | Nc1cc2c3c(cccc3c1)C(=O)N(CCN1CCCC1)C2=O | 4.08
91 | O=C(/C=C/c1ccccc1Cl)c1ccccc(=O)c1O | 4.46
92 | Cc1ccc(N/C(=C\C(=O)c2ccccc2)C(=O)O)cc1 | 4.51
93 | CC(=O)OC1=C(O)C(=O)c2ccccc2C1=O | 3.85
94 | CCOc1cccc(CNCCc2c(C)[nH]c3ccc(OC(F)(F)F)cc23)c1O | 4.40
95 | O=C(CC1NCCc2ccccc21)Nc1ccc(Oc2ccccc2)cc1 (stereo unspecified) | 4.33
96 | O=C(O)c1cn(C2CC2)c2cc(N3CCN(S(=O)(=O)c4ccc5c(c4)OCCO5)CC3)c(F)cc2c1=O | 5.12
97 | CO[C@H]1C=CO[C@@]2(C)Oc3c(C)c(O)c4c(O)c(c5c(c4c3C2=O)NC2(CCN(CC(C)C)CC2)N=5)=NC(=O)C(C)=CC=C[C@H](C)[C@H](O)[C@@H](C)[C@@H](O)[C@@H](C)[C@H](OC(C)=O)[C@@H]1C | 5.82
98 | CN1/C(=C\C=C\C2=[N+](C)c3ccc4ccccc4c3C2(C)C)C(C)(C)c2ccccc21 | 5.24
99 | Cc1ccc(C(=O)Sc2cccccc2=O)cc1 | 5.28
100 | CNC(=S)N1CCN(c2c(F)cc3c(=O)c(C(=O)O)cn(C4CC4)c3c2OC)CC1C (stereo unspecified) | 5.11
101 | O=C(CN1CC(c2ccccc2)CC1=O)N/N=C/c1cc(Br)ccc1O (stereo unspecified) | 4.18
102 | O=C(N/N=C/c1ccc([N+](=O)[O-])s1)c1ccccc1Br | 4.13
103 | CC(=O)NNC(=S)NC(=O)c1ccccc1 | 4.69
104 | CCCCOc1ccc(CSC(=N)N)cc1Cl | 4.11
105 | O=C1CN(/N=C/c2ccc([N+](=O)[O-])o2)C(=O)N1 | 4.39
106 | CN1CCc2c(sc(NC(=O)c3ccc([N+](=O)[O-])o3)c2C(N)=O)C1 | 4.73
